Data: ChEMBL document CHEMBL5252520, “Inhibition of phospho-MurNAc-pentapeptide translocase (MraY) by nucleoside natural product antibiotics, bacteriophage ϕX174 lysis protein E, and cationic antibacterial peptides” (Bioorg Med Chem, 2016)
pIC50: −log10 of the molar value. In brackets after ≈: the same amount, converted by molar mass. Residues, ends and D or L forms follow the SMILES beside them.

What was measured:
[1] = Inhibition of bacterial MraY; set-up: species or system Bacteria
[2] = test system: Escherichia coli; assay: Antibacterial activity against Escherichia coli assessed as reduction in bacterial growth; type: functional
[3] = test system: Pseudomonas aeruginosa; assay: Antibacterial activity against Pseudomonas aeruginosa H103 assessed as reduction in bacterial growth; type: functional
[4] = biological target: T1, Decaprenyl-phosphate N-acetylglucosaminephosphotransferase (Mycolicibacterium smegmatis (strain ATCC 700084 / mc(2)155) (Mycobacteriumsmegmatis), UniProt A0R211); assay: Inhibition of Mycobacterium smegmatis ATCC 607 WecA
T1 sequence (A0R211 whole entry): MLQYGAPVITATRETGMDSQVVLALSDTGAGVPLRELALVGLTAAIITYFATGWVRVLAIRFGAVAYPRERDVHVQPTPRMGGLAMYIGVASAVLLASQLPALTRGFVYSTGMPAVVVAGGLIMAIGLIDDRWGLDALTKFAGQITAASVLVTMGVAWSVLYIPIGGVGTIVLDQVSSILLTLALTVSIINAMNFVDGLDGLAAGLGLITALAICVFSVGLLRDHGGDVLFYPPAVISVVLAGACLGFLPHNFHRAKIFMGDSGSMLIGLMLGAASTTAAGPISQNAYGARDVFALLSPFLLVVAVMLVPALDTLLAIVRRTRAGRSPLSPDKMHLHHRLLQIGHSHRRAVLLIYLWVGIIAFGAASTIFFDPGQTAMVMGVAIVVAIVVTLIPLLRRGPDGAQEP

[5] = Inhibition of Campylobacter jejuni PgIC expressed in Escherichia coli by affinity chromatography
[6] = Inhibition of Bacillus subtilis TagO
[7] = biological target: T2, Phospho-N-acetylmuramoyl-pentapeptide-transferase (Bacillus subtilis (strain 168), UniProt Q03521); assay: Inhibition of Bacillus subtilis MraY
T2 sequence (Q03521 whole entry): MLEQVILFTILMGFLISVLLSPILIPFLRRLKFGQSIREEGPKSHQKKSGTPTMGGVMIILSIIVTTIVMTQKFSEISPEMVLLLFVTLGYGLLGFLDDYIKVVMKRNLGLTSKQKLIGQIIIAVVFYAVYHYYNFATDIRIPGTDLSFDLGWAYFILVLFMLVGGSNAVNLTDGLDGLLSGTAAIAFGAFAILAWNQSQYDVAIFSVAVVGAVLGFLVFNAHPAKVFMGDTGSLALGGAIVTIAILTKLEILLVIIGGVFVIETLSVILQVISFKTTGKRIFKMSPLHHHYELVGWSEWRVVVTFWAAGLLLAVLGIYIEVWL

[8] = test system: Escherichia coli; assay: Antibacterial activity against Escherichia coli assessed as inhibition of bacterial growth; type: functional
[9] = biological target: T3, Phospho-N-acetylmuramoyl-pentapeptide-transferase (Escherichia coli, UniProt E2QF15); assay: Inhibition of recombinant Escherichia coli MraY by fluorescence based analysis
T3 sequence (E2QF15 whole entry): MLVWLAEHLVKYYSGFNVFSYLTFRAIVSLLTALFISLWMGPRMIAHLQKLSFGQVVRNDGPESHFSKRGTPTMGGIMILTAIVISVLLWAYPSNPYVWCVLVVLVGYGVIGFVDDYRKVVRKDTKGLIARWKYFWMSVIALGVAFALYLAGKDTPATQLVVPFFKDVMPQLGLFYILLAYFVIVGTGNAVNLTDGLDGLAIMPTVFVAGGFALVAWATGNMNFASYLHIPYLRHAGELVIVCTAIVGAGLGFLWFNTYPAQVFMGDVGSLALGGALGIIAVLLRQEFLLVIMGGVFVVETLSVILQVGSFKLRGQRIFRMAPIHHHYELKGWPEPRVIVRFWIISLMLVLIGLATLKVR

Row | SMILES | pIC50 [1] | MIC [2] [µg/mL] | also measured
1 | CC[C@H](C)[C@H](N)C(=O)N[C@@H](CC(C)C)C(=O)N1CCC[C@H]1C(=O)N[C@@H](Cc1c[nH]c2ccccc12)C(=O)N[C@@H](CCCCN)C(=O)N[C@@H](Cc1c[nH]c2ccccc12)C(=O)N1CCC[C@H]1C(=O)N[C@@H](Cc1c[nH]c2ccccc12)C(=O)N[C@@H](Cc1c[nH]c2ccccc12)C(=O)N1CCC[C@H]1C(=O)N[C@@H](Cc1c[nH]c2ccccc12)C(=O)N[C@@H](CCCN=C(N)N)C(=O)N[C@@H](CCCN=C(N)N)C(N)=O | 4.05 |  | 
2 | CCCCc1ccc(NC(=O)C2=CCN(C)[C@@H]([C@H](O[C@@H]3O[C@H](CN)[C@@H](O)[C@H]3O)[C@H]3O[C@@H](n4ccc(=O)[nH]c4=O)[C@H](O)[C@@H]3O)C(=O)N2C)cc1 |  |  | pIC50 [4]: 7.24
3 | CSCC[C@H](NC(=O)N[C@@H](Cc1cccc(O)c1)C(=O)O)C(=O)N[C@@H](C(=O)N/C=C1\C[C@@H](O)[C@H](n2ccc(=O)[nH]c2=O)O1)[C@H](C)N(C)C(=O)[C@@H](N)Cc1cccc(O)c1 |  |  | pIC50 [5]: 4.40
4 | NC[C@H]1O[C@@H](O[C@@H](Cn2cc(CCCCCO)nn2)[C@H]2O[C@@H](n3ccc(=O)[nH]c3=O)[C@H](O)[C@@H]2O)[C@H](O)[C@@H]1O |  |  | IC50 [6]: 0.05 µg/mL (≈ 0.0922 µM)
5 | CC(C)C[C@H](NC(=O)CNC(=O)CNC(=O)[C@@H](N)CCCNC(=N)N)C(=O)N[C@@H](Cc1c[nH]c2ccccc12)C(=O)O (H-RGGLW-OH) | 3.68 |  | 
6 | CO[C@@H]1[C@@H](OC)[C@H](C)O[C@@H](OC(=O)C[C@@H](C)CC(=O)O[C@@H](CCCCCCCCCCC(C)C)CC(=O)O[C@H]2CN(C)[C@@H]([C@H](O[C@@H]3O[C@H](CN)[C@@H](O)[C@H]3O)[C@H]3O[C@@H](n4ccc(=O)[nH]c4=O)[C@H](O)[C@@H]3O)C(=O)N(C)[C@@H]2C(=O)O)[C@@H]1OC |  |  | pIC50 [7]: 4.00
7 | CC[C@H](C)[C@H](NC(=O)[C@H](Cc1c[nH]c2ccccc12)NC(=O)[C@@H](NC(=O)[C@@H](NC(=O)[C@H](Cc1c[nH]c2ccccc12)NC(=O)[C@H](CCCNC(=N)N)NC(=O)[C@@H](N)CCCNC(=N)N)[C@@H](C)CC)C(C)C)C(=O)N[C@@H](CCCNC(=N)N)C(=O)O (H-RRWIVWIR-OH) |  |  | MIC [8]: 2 µg/mL (≈ 1.69 µM); MIC [3]: 8 µg/mL (≈ 6.75 µM)
8 | CC(C)[C@H](NC(=O)N[C@H](C(=O)N[C@H](C(=O)NCCCN[C@@H](C[C@H]1O[C@@H](n2ccc(=O)[nH]c2=O)[C@H](O)[C@@H]1O)C(=O)O)[C@@H](O)C(C)C)[C@@H]1CCNC(=N)N1)C(=O)O |  |  | pIC50 [9]: 5.70
9 | CC(=O)N[C@@H](CCCNC(=N)N)C(=O)N[C@@H](CCCNC(=N)N)C(=O)N[C@@H](Cc1c[nH]c2ccccc12)C(=O)N[C@@H](Cc1c[nH]c2ccccc12)C(=O)N[C@@H](CS)C(=O)N[C@@H](Cc1ccccc1)C(=O)O (Ac-RRWWCF-OH) |  | 20 (≈ 20.1 µM) | MIC [3]: 45 µg/mL (≈ 45.2 µM)
10 | O=C(O)c1c(Cl)c(Cl)c(Cl)c(Cl)c1-c1c2cc(Br)c(=O)c(Br)c-2oc2c(Br)c(O)c(Br)cc12 | 4.49 |  | pIC50 [7]: 3.07
11 | CSCC[C@H](N)C(=O)N[C@H](C(=O)N[C@@H](CCCNC(=N)N)C(=O)N[C@@H](Cc1c[nH]c2ccccc12)C(=O)N[C@H](C(=O)N[C@@H](CC(C)C)C(=O)N[C@@H](Cc1c[nH]c2ccccc12)C(=O)N[C@@H](CC(=O)O)C(=O)N[C@H](C(=O)N[C@@H](CC(C)C)C(=O)N[C@@H](C)C(=O)N[C@@H](Cc1ccccc1)C(=O)N[C@@H](CC(C)C)C(=O)N[C@@H](CC(C)C)C(=O)N[C@@H](CC(C)C)C(=O)O)[C@@H](C)O)[C@@H](C)O)C(C)C (H-MVRWTLWDTLAFLLL-OH) | 6.10 |  | 
12 | CSCC[C@H](NC(=O)[C@H](CCCNC(=N)N)NC(=O)[C@H](Cc1c[nH]c2ccccc12)NC(=O)[C@H](CCC(N)=O)NC(=O)[C@H](Cc1c[nH]c2ccccc12)NC(=O)[C@H](CCCNC(=N)N)NC(=O)[C@H](CCCNC(=N)N)NC(=O)[C@H](CS)NC(=O)[C@H](CCCCN)NC(=O)[C@@H](N)CCC(=O)O)C(=O)N[C@@H](CCCCN)C(=O)N[C@@H](CCCCN)C(=O)N[C@@H](CC(C)C)C(=O)NCC(=O)O (H-EKCRRWQWRMKKLG-OH) |  | 24 (≈ 12.6 µM) | 
13 | CC(C)C[C@H](NC(=O)CNC(=O)[C@H](Cc1c[nH]c2ccccc12)NC(=O)[C@@H](N)CCCNC(=N)N)C(=O)NCC(=O)O (H-RWGLG-OH) | 3.56 |  | 

Now from value to molecule, other results behind:

Row | pIC50 [1] | MIC [2] [µg/mL] | SMILES | also measured
14 | < 3.00 | 31 (≈ 65.6 µM) | CCCCCCCCOC(=O)[C@H](Cc1c[nH]c2ccccc12)NC(=O)[C@@H](N)CCCNC(=N)N | MIC [3]: 40 µg/mL (≈ 84.6 µM)
15 | 3.10 |  | CCCCCCCCOC(=O)[C@H](Cc1c[nH]c2ccccc12)NC(=O)CN | 
16 |  | 1 (≈ 0.742 µM) | CC[C@H](C)[C@H](NC(=O)[C@H](CCCCN)NC(=O)[C@H](CCCCN)NC(=O)[C@H](Cc1ccccc1)NC(=O)[C@H](CC(C)C)NC(=O)[C@H](CCCCN)NC(=O)[C@H](Cc1c[nH]c2ccccc12)NC(=O)[C@@H](N)CCCCN)C(=O)N[C@@H](CCC(=O)O)C(=O)N[C@@H](CCCCN)C(=O)O (H-KWKLFKKIEK-OH) | MIC [3]: 5 µg/mL (≈ 3.71 µM)
17 |  | 20 (≈ 10.5 µM) | CC(C)C[C@H](NC(=O)[C@H](Cc1ccccc1)NC(=O)[C@@H]1CCCN1C(=O)[C@H](Cc1c[nH]c2ccccc12)NC(=O)[C@H](Cc1c[nH]c2ccccc12)NC(=O)[C@H](Cc1c[nH]c2ccccc12)NC(=O)[C@@H]1CCCN1C(=O)[C@H](Cc1ccccc1)NC(=O)[C@H](CCCNC(=N)N)NC(=O)[C@H](CCCNC(=N)N)NC(=O)[C@@H](N)C(C)C)C(=O)N[C@@H](CCCNC(=N)N)C(=O)N[C@@H](CCCNC(=N)N)C(=O)O | MIC [3]: 1 µg/mL (≈ 0.526 µM)
18 | 3.68 |  | CC(C)C[C@H](NC(=O)CNC(=O)[C@H](Cc1c[nH]c2ccccc12)NC(=O)CN)C(=O)N[C@@H](Cc1c[nH]c2ccccc12)C(=O)O (H-GWGLW-OH) | 
19 | 3.63 |  | N=C(N)NCCC[C@H](N)C(=O)N[C@@H](Cc1c[nH]c2ccccc12)C(=O)NCC(=O)NCC(=O)N[C@@H](Cc1c[nH]c2ccccc12)C(=O)O (H-RWGGW-OH) | 
20 | 4.30 | 38 (≈ 21.3 µM) | CC[C@H](C)[C@H](N)C(=O)N[C@@H](CC(C)C)C(=O)N[C@@H](CCCNC(=N)N)C(=O)N[C@@H](Cc1c[nH]c2ccccc12)C(=O)N1CCC[C@H]1C(=O)N[C@@H](Cc1c[nH]c2ccccc12)C(=O)N[C@@H](Cc1c[nH]c2ccccc12)C(=O)N1CCC[C@H]1C(=O)N[C@@H](Cc1c[nH]c2ccccc12)C(=O)N[C@@H](CCCNC(=N)N)C(=O)N[C@@H](CCCNC(=N)N)C(=O)N[C@@H](CCCCN)C(=O)O (H-ILRWPWWPWRRK-OH) | MIC [3]: 19 µg/mL (≈ 10.7 µM)
21 | 4.12 |  | CC[C@H](C)[C@H](NC(=O)[C@H](CCCNC(=N)N)NC(=O)[C@H](Cc1c[nH]c2ccccc12)NC(=O)[C@@H](NC(=O)[C@@H](NC(=O)[C@H](CC(C)C)NC(=O)[C@H](Cc1c[nH]c2ccccc12)NC(=O)[C@H](CCCNC(=N)N)NC(=O)[C@H](CCC(N)=O)NC(=O)[C@@H](N)C(C)C)[C@@H](C)CC)C(C)C)C(=O)N[C@@H](CCCNC(=N)N)C(=O)N[C@@H](CCCCN)C(=O)O (H-VQRWLIVWRIRK-OH) | MIC [8]: 8 µg/mL (≈ 4.84 µM)
22 |  | 7 (≈ 3.76 µM) | CC(C)[C@H](NC(=O)[C@@H](NC(=O)[C@H](Cc1c[nH]c2ccccc12)NC(=O)[C@H](CCCNC(=N)N)NC(=O)[C@H](Cc1c[nH]c2ccccc12)NC(=O)[C@H](Cc1c[nH]c2ccccc12)NC(=O)[C@H](CCCCN)NC(=O)[C@H](Cc1c[nH]c2ccccc12)NC(=O)[C@H](Cc1c[nH]c2ccccc12)NC(=O)[C@H](CCCCN)NC(=O)CN)[C@@H](C)O)C(=O)N1CCC[C@H]1C(=O)N[C@@H](Cc1ccccc1)C(=O)O (H-GKWWKWWRWTVPF-OH) | 
